Test system: yeast genes (level of expressed mRNA)
Assay: DNA chip analysis of expressed mRNA of yeast genes after 2 h culture with a toxic chemical substance
Type: cell-based, Saccharomyces cerevisiae S288C
Description: Yeast (Saccharomyces cerevtisiae S288C (α SUC2mal mel gap2 CUP1)) were cultured at 25° C. on YPD medium (yeast extract 1%, polypepton 2%, glucose 2%). One of toxic chemical substances was added to the cell at logarithmic growth phase, and the cell was further cultured for two hours. Cell was cultured without any chemical substance in the same condition, and was used as control. Concentrations of the chemical substances were defined to inhibit the growth of the yeast but not lead to death.
After the completion of cultivation, the culture was centrifuged to collect the cells. To the cells, sodium acetate buffer (50 mM sodium acetate, 10 mM EDTA, 1% SDS) was added, and the mixture was shaken at 65° C. for five minutes, followed by returning to room temperature, and obtaining the supernatant, which procedure was repeated two times. To the supernatant, ½ amount of a solution of phenol/chloroform was added, and the mixture was centrifuged to give a supernatant, which was added with an equal amount of chloroform, and the mixture was centrifuged to give a supernatant. To the supernatant, an equal amount of isopropanol containing 0.3 M sodium acetate was added, and the mixture was allowed to stand at room temperature for 30 minutes, after which the mixture was centrifuged to give a sediment of the whole RNAs. Seventy % ethanol was added to the sediment, and the mixture was again centrifuged to give a sediment, which was then dried and dissolved in water. mRNA was isolated from the whole RNAs as followings. In view of the fact that a poly A chain is attached to the 3′ terminus of mRNA, a polynucleotide having a poly T structure which was immobilized on the surface of latex beads was used to trap the mRNA, and then the mRNA was washed and eluted with spine column (Oligotex-dT30<Super>mRNA Purification Kit, Takara). Reverse transcription of the mRNA was conducted with a reverse transcriptase (Super Script II Reverse Transcriptase; catalogue No. 18064-014, GibcoBRL) using fluorescence-labeled nucleotides to give cDNAs that were introduced with Cy3-dUTP or Cy5-dUTP during the reverse transcription.
The labeled cDNAs were dissolved in TE buffer (10 mM Tris-HCl/1 mM EDTA, pH8.0), and the solution was dropped on the DNA chip containing the whole genes of yeast (DNA Chip Research Inc. Japan) so that the cDNAs were hybridized on the DNA chip at 65° C. for over 12 hours. The fluoresces intensity of the DNA chip was read with a scanner, and the ratio relative to the fluorescence intensity resulting from the absence of chemical substance was estimated as the following, which is shown in Tables 1 to 9: [formula]
In the Tables, “Intensity” indicated in the rightmost column is a value of the level of expressed mRNA of each gene in control cells as divided by the average level of the expressions of the whole genes.

Substance: manganese ethylenebis(dithiocarbamate) [(8)]
- The level of expressed mRNA in the presence of chemical substance/ (yeast gene YFL010C, ratio to control without chemical substance, 2 h culture): 1.0
- The level of expressed mRNA in the presence of chemical substance/ (yeast gene YFL024C, ratio to control without chemical substance, 2 h culture): 0.9
- The level of expressed mRNA in the presence of chemical substance/The level of expressed mRNA in the absence of chemical substance (yeast gene YFL028C): 1.5
- The level of expressed mRNA in the presence of chemical substance/ (yeast gene YFL032W, ratio to control without chemical substance, 2 h culture): 0.4
- The level of expressed mRNA in the presence of chemical substance/The level of expressed mRNA in the absence of chemical substance (yeast gene YFL043C): 1.0
- The level of expressed mRNA in the presence of chemical substance/in the absence of chemical substance (yeast gene YGL035C): 1.3
- The level of expressed mRNA in the presence of chemical substance/ (yeast gene YGL037C, ratio to control without chemical substance, 2 h culture): 1.2
- The level of expressed mRNA in the presence of chemical substance/ (yeast gene YGL047W, ratio to control without chemical substance, 2 h culture): 1.1
- The level of expressed mRNA in the presence of chemical substance/ (yeast gene YGL053W, ratio to control without chemical substance, 2 h culture): 1.2
- The level of expressed mRNA in the presence of chemical substance/ (yeast gene YGL121C, ratio to control without chemical substance, 2 h culture): 3.0
- The level of expressed mRNA in the presence of chemical substance/The level of expressed mRNA in the absence of chemical substance (yeast gene YGL158W): 1.3
- The level of expressed mRNA in the presence of chemical substance/ (yeast gene YGL199C, ratio to control without chemical substance, 2 h culture): 0.7
- The level of expressed mRNA in the presence of chemical substance/The level of expressed mRNA in the absence of chemical substance (yeast gene YGL229C): 0.7
- The level of expressed mRNA in the presence of chemical substance/ (yeast gene YGR101W, ratio to control without chemical substance, 2 h culture): 0.8
- The level of expressed mRNA in the presence of chemical substance/ (yeast gene YGR110W, ratio to control without chemical substance, 2 h culture): 1.5
- The level of expressed mRNA in the presence of chemical substance/ (yeast gene YGR130C, ratio to control without chemical substance, 2 h culture): 0.9
- The level of expressed mRNA in the presence of chemical substance/The level of expressed mRNA in the absence of chemical substance (yeast gene YGR136W): 1.3
- The level of expressed mRNA in the presence of chemical substance/ (yeast gene YGR154C, ratio to control without chemical substance, 2 h culture): 1.7
- The level of expressed mRNA in the presence of chemical substance/The level of expressed mRNA in the absence of chemical substance (yeast gene YGR189C): 1.0
- The level of expressed mRNA in the presence of chemical substance/The level of expressed mRNA in the absence of chemical substance (yeast gene YGR213C): 2.0
- The level of expressed mRNA in the presence of chemical substance/ (yeast gene YGR221C, ratio to control without chemical substance, 2 h culture): 1.1
- The level of expressed mRNA in the presence of chemical substance/The level of expressed mRNA in the absence of chemical substance (yeast gene YGR257C): 1.0
- The level of expressed mRNA in the presence of chemical substance/in the absence of chemical substance (yeast gene YGR287C): 1.3
- The level of expressed mRNA in the presence of chemical substance/The level of expressed mRNA in the absence of chemical substance (yeast gene YHR004C): 0.9
- The level of expressed mRNA in the presence of chemical substance/The level of expressed mRNA in the absence of chemical substance (yeast gene YHR071W): 1.7
- The level of expressed mRNA in the presence of chemical substance/ (yeast gene YHR138C, ratio to control without chemical substance, 2 h culture): 1.4
- The level of expressed mRNA in the presence of chemical substance/The level of expressed mRNA in the absence of chemical substance (yeast gene YHR139C): 1.3
- The level of expressed mRNA in the presence of chemical substance/The level of expressed mRNA in the absence of chemical substance (yeast gene YHR142W): 1.3
- The level of expressed mRNA in the presence of chemical substance/ (yeast gene YHR199C, ratio to control without chemical substance, 2 h culture): 1.0
- The level of expressed mRNA in the presence of chemical substance/ (yeast gene YIL023C, ratio to control without chemical): 0.7
- The level of expressed mRNA in the presence of chemical substance/ (yeast gene YIL041W, ratio to control without chemical substance, 2 h culture): 0.9
- The level of expressed mRNA in the presence of chemical substance/ (yeast gene YIL087C, ratio to control without chemical substance, 2 h culture): 1.1
- The level of expressed mRNA in the presence of chemical substance/The level of expressed mRNA in the absence of chemical substance (yeast gene YIL123W): 0.6
- The level of expressed mRNA in the presence of chemical substance/The level of expressed mRNA in the absence of chemical substance (yeast gene YIL140W): 0.7
- The level of expressed mRNA in the presence of chemical substance/ (yeast gene YJL057C, ratio to control without chemical substance, 2 h culture): 1.5
- The level of expressed mRNA in the presence of chemical substance/ (yeast gene YJL066C, ratio to control without chemical substance, 2 h culture): 0.8
- The level of expressed mRNA in the presence of chemical substance/in the absence of chemical substance (yeast gene YJL070C): 1.1
- The level of expressed mRNA in the presence of chemical substance/The level of expressed mRNA in the absence of chemical substance (yeast gene YJL073W): 1.0
- The level of expressed mRNA in the presence of chemical substance/ (yeast gene YJL082W, ratio to control without chemical substance, 2 h culture): 0.9
- The level of expressed mRNA in the presence of chemical substance/The level of expressed mRNA in the absence of chemical substance (yeast gene YJL089W): 1.1
- The level of expressed mRNA in the presence of chemical substance/The level of expressed mRNA in the absence of chemical substance (yeast gene YJL116C): 1.8
- The level of expressed mRNA in the presence of chemical substance/ (yeast gene YJL151C, ratio to control without chemical substance, 2 h culture): 0.8
- The level of expressed mRNA in the presence of chemical substance/ (yeast gene YJL152W, ratio to control without chemical substance, 2 h culture): 0.7
- The level of expressed mRNA in the presence of chemical substance/ (yeast gene YJL161W, ratio to control without chemical substance, 2 h culture): 1.4
- The level of expressed mRNA in the presence of chemical substance/in the absence of chemical substance (yeast gene YJL167W): 1.5
- The level of expressed mRNA in the presence of chemical substance/ (yeast gene YJL171C, ratio to control without chemical substance, 2 h culture): 0.9
- The level of expressed mRNA in the presence of chemical substance/in the absence of chemical substance (yeast gene YJL216C): 1.9
- The level of expressed mRNA in the presence of chemical substance/The level of expressed mRNA in the absence of chemical substance (yeast gene YJR004C): 0.4
- The level of expressed mRNA in the presence of chemical substance/ (yeast gene YJR008W, ratio to control without chemical substance, 2 h culture): 1.1
- The level of expressed mRNA in the presence of chemical substance/ (yeast gene YJR054W, ratio to control without chemical): 1.6
- The level of expressed mRNA in the presence of chemical substance/The level of expressed mRNA in the absence of chemical substance (yeast gene YJR086W): 1.1
- The level of expressed mRNA in the presence of chemical substance/The level of expressed mRNA in the absence of chemical substance (yeast gene YKL008C): 1.2
- The level of expressed mRNA in the presence of chemical substance/The level of expressed mRNA in the absence of chemical substance (yeast gene YKL013C): 0.9
- The level of expressed mRNA in the presence of chemical substance/The level of expressed mRNA in the absence of chemical substance (yeast gene YKL039W): 0.8
- The level of expressed mRNA in the presence of chemical substance/The level of expressed mRNA in the absence of chemical substance (yeast gene YKL041W): 1.6
- The level of expressed mRNA in the presence of chemical substance/ (yeast gene YKL071W, ratio to control without chemical substance, 2 h culture): 24.7

Source: patent publication US20050112573A1, “Method of detecting toxic substance” (priority 2001, published 2005)
